Assay results published in ChEMBL document CHEMBL2331123, “Deuterated clopidogrel analogues as a new generation of antiplatelet agents” (ACS Med Chem Lett, 2013).

Tests used:
Rattus norvegicus [1] = assay: Inhibition of ADP-induced platelet aggregation in Wistar rat blood at 10 mg/kg, po after 5 mins by aggregometer analysis relative to vehicle-treated control
Rattus norvegicus [2] = assay: Inhibition of ADP-induced platelet aggregation in Wistar rat blood at 10 mg/kg, po after 2 hrs by aggregometer analysis relative to vehicle-treated control

SMILES	aggregation at 10 mg/kg (Rattus norvegicus [1]) [%]	aggregation at 10 mg/kg (Rattus norvegicus [2]) [%]
COC(=O)C(c1ccccc1Cl)N1CCc2sccc2C1 (stereo not drawn)	29.4	60.4
[3H]C1([3H])c2ccsc2C([3H])([3H])C([3H])([3H])N1C(C(=O)OC)c1ccccc1Cl (stereo not drawn)	7	50.6
[3H]C1([3H])c2sccc2CN(C(C(=O)OC)c2ccccc2Cl)C1([3H])[3H] (stereo not drawn)	7.3	49.1
[3H]C1([3H])c2ccsc2CCN1C(C(=O)OC)c1ccccc1Cl (stereo not drawn)	12.9	50.4
